Data as given in ChEMBL document CHEMBL1127920, “Synthesis and biological activity of 14-hydroxydocetaxel” (Bioorg Med Chem Lett, 1994).

How the values were obtained:
Format in all cases: functional, cell-based
HT-29 = assay: Cytotoxicity was evaluated in vitro against HT-29 (colon carcinoma) human tumor cell lines
A121 = assay: Cytotoxicity was evaluated in vitro against A121 (ovarian carcinoma) human tumor cell lines
A549 = assay: Cytotoxicity was evaluated in vitro against A549 (non-small cell lung carcinoma) human tumor cell lines
MCF7 = assay: Cytotoxicity was evaluated in vitro against MCF-7 (mammary carcinoma) human tumor cell lines

| Structure (SMILES) | IC50 (HT-29) | IC50 (A121) | IC50 (A549) | IC50 (MCF7) |
| --- | --- | --- | --- | --- |
| CC(=O)O[C@@]12CO[C@@H]1C[C@H](O)[C@@]1(C)C(=O)[C@H](O)C3=C(C)[C@@H](OC(=O)[C@H](O)[C@@H](NC(=O)OC(C)(C)C)c4ccccc4)[C@@H]4OC(C)(C)O[C@]4([C@@H](OC(=O)c4ccccc4)C12)C3(C)C (some centres not stated) | 21 nM | 46 nM | 18 nM | 34 nM |
| CC(=O)O[C@@]12CO[C@@H]1C[C@H](O)[C@@]1(C)C(=O)[C@H](O)C3=C(C)[C@@H](OC(=O)[C@H](O)[C@@H](NC(=O)OC(C)(C)C)c4ccccc4)[C@H](O)[C@@](O)([C@@H](OC(=O)c4ccccc4)C12)C3(C)C (some centres not stated) | 2.1 nM | 3.3 nM | 0.8 nM | 1.9 nM |
| CC(=O)O[C@@]12CO[C@@H]1C[C@H](O)[C@@]1(C)C(=O)[C@H](O)C3=C(C)[C@@H](OC(=O)[C@H](O)[C@@H](NC(=O)OC(C)(C)C)c4ccccc4)C[C@@](O)([C@@H](OC(=O)c4ccccc4)[C@H]21)C3(C)C [DOCETAXEL] | 1.2 nM | 1.2 nM | 1 nM | 1 nM |
